Data: ChEMBL document CHEMBL1123200 (J Med Chem, 1986)

Tests used:
Rattus norvegicus [1] = organism: Rattus norvegicus; test: Inhibition was measured for [3H]GABA-uptake from rat synaptosomal membrane.; assay type: functional
Rattus norvegicus [2] = organism: Rattus norvegicus
Rattus norvegicus [3] = organism: Rattus norvegicus; remark: listed apart in the source

SMILES | Ki (Rattus norvegicus [1]) | Vmax (pM min-1 mg-1) (Rattus norvegicus [2]) | Km (Rattus norvegicus [3])
O=C(O)C1=CC(=C(c2ccccc2)c2ccccc2)CNC1 | 104 µM | – | –
NCCCC(=O)O | – | 881 | 4.3 µM
CN1CC(C(=O)O)=CC(=C(c2ccccc2)c2ccccc2)C1 | 12.9 µM | – | –
O=C(O)C1CCCNC1 (stereo not given) [NIPECOTIC ACID] | 3.8 µM | – | –
